Test results reported in patent US5760036A, “Aminediol protease inhibitors” (E. R. Squibb & Sons, Inc., priority 1995, dated 1998).
Counter-ions that a name gives are not always drawn.

Key:
[1] = test system: RF strain of HIV (CEM-SS cells); assay: Cell Culture Anti-HIV Activity (cell viability, formazan); assay type: cell-based; conditions: Human immunodeficiency virus 1, CEM-SS, 144 h, CEM-SS cells, RF strain of HIV, multiplicity of infection 0.04, 6 days at 37° C., 450 nm; read-out: HIV (CEM Cells) IC50
Method in brief: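 Half-log compound dilutions added to CEM-SS cells (5000/well) carrying HIV RF (MOI 0.04), 6 days, 37° C. Cell protection measured as formazan from tetrazolium, A450. IC50: drug level restoring infected-cell formazan to 50% of the uninfected untreated control.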

HIV protease = target: T1, HIV protease (Human immunodeficiency virus type 1 group M subtype B, UniProt P04585); assay: HIV Protease Assay; assay type: biochemical; conditions: pH 5.5, 10 μM inhibitor, 4% DMSO, 450 μM substrate, pH 5.5, 30 minutes at 37° C., RP-HPLC; read-out: HIV Protease % Inhibition at 10 μM
T1 construct: and purified protease
Method in brief: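 At a single final concentration of 10 μM (4% DMSO), inhibitors were added to a 30-minute, 37° C reaction of purified enzyme with 450 μM H2N-Val-Ser-Gln-Asn-(β-naphthyl-alanine)-Pro-Val-Ile-OH at pH 5.5 (sodium acetate, BSA). Hydrolysis was quantified by reverse-phase HPLC with 220 nm detection after acid quench.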

Compound	inhibition at 10 µM (HIV protease) [%]	IC50 [1] [nM]
CC(C)[C@H](NC(=O)CCC(=O)Nc1ccccc1)C(=O)N[C@@H](Cc1ccccc1)[C@H](O)CNC[C@@H](O)[C@H](Cc1ccccc1)NC(=O)OC(C)(C)C (relative stereo) [Compound 204, [1R*,2S*(2S*,3R*)]-N-[3-[[3-[[(1,1-Dimethylethoxy)carbonyl]amino]-2-hydroxy-4-phenylbutyl]amino]-2-hydroxy-1-(phenylmethyl)propyl]-N^2-[[1,4-dioxo-4-(phenylamino)butyl]-L-valinamide]	99	170
CC(C)[C@H](NC(=O)Cc1nc2ccccc2[nH]1)C(=O)N[C@@H](Cc1ccccc1)[C@H](O)CNC[C@@H](O)[C@H](Cc1ccccc1)NC(=O)OC(C)(C)C (relative stereo) [Compound 105, S-[1R*,2S*(2S*,3R*)]-N-[3-[[3-[[(1,1-Dimethylethoxy)carbonyl]amino]-2-hydroxy-4-phenylbutyl]amino]-2-hydroxy-1-(phenylmethyl)-propyl]-N^2-(1H-benzimidazol-2-ylacetyl)-L-valinamide]	99	1600
C[C@H](NC=O)C(=O)N[C@H](C(=O)N[C@@H](Cc1ccccc1)[C@H](O)CNC[C@@H](O)[C@H](Cc1ccccc1)NC(=O)OC(C)(C)C)C(C)(C)C (relative stereo) [Compound 284, [1R*,2S*(2S*,3R*)]-N-[3-[[(1,1-Dimethylethoxy)carbonyl]amino]-2-hydroxy-4-phenylbutyl]amino]-2-hydroxy-1-(phenylmethyl)propyl]-N^2-(N-formyl-L-alanyl)-3-methyl-L-valinamide]	100	4400
CC(C)(C)OC(=O)N[C@@H](Cc1ccc(OCCc2ccccn2)cc1)[C@H](O)CNC[C@@H](O)[C@H](Cc1ccccc1)NC(=O)OC(C)(C)CO [Compound 298, [1S-[1R*,2S*(2S*,3R*)]]-[2 Hydroxy-3-[[2-hydroxy-3-[[(2-hydroxy-1,1-dimethylethoxy)carbonyl]amino]-4-phenylbutyl]amino]-1-[[4-[2-(2-pyridinyl)ethoxy]phenyl]methyl]propyl]carbamic acid, 1,1-dimethylethyl ester]	100	60
CC(C)(C)OC(=O)N[C@@H](Cc1ccccc1)[C@H](O)CNC[C@@H](O)[C@H](Cc1ccccc1)NC(=O)[C@@H](NC(=O)OCc1ncc(-c2ccccc2)o1)C(C)(C)C [Compound 347, [S-(1R*,2S*(2S*,3R*)]]-[2,2-Dimethyl-1-[[[3-[[3-[[1,1-dimethylethoxy)-carbonyl]amino]-2-hydroxy-4-phenylbutyl]amino]-2-hydroxy-1-(phenylmethyl)propyl]amino]carbonyl]-propyl]carbamic acid, (5-phenyl-2-oxazolyl)methyl ester]	99	50
CC(C)[C@H](NC(=O)OCCNc1ccccc1)C(=O)N[C@@H](Cc1ccccc1)[C@H](O)CNC[C@@H](O)[C@H](Cc1ccccc1)NC(=O)OC(C)(C)C (relative stereo) [Compound 203, [1R*,2S*(2S*,3R*)]-N-[3-[[3-[[(1,1-Dimethylethoxy)carbonyl]amino]-2-hydroxy-4-phenylbutyl]amino]-2-hydroxy-1-(phenylmethyl)propyl]-N^2-[[2-(phenylamino)ethoxy]carbonyl]-L-valinamide]	98	200
CC(C)(C)OC(=O)N[C@@H](Cc1ccccc1)[C@H](O)CNC[C@@H](O)[C@H](Cc1ccccc1)NC(=O)OC1COC1 [Compound 319]	93	1370
CC(C)(C)OC(=O)N[C@@H](Cc1ccccc1)[C@H](O)CNC[C@@H](O)[C@H](Cc1ccccc1)NC(=O)C(OCCCc1nc2ccccc2[nH]1)C(C)(C)C (stereo partly drawn) [Compound 238, [1S-[1R*,2S*(2S*,3R*)]]-[3-[[3-[[2-[3-(2-Benzimidazolyl)propoxy]-3,3-dimethyl-1-oxobutyl]amino]-2-hydroxy-4-phenylbutyl]amino]-2-hydroxy-1-(phenylmethyl)propyl]carbamic acid, 1,1-dimethylethyl ester]	64	2300

The next lines start with results.

inhibition at 10 µM (HIV protease) [%]	Compound	IC50 [1] [nM]
98	CC(C)(C)OC(=O)N[C@@H](Cc1ccccc1)[C@H](O)CNC[C@@H](O)[C@H](Cc1ccccc1)NC(=O)OC(C)(C)[C@H](O)CO [Compound 228, [1S-(1R*,2S*),(S*)]-[Iminobis[2-hydroxy-1-(phenylmethyl)-3,1-propanediyl]]biscarbamic acid, 2,3-dihydroxy-1,1-dimethylpropyl 1,1-dimethylethyl ester]	700
98	CC(C)(C)OC(=O)N[C@@H](Cc1ccccc1)[C@H](O)CNC[C@@H](O)[C@H](Cc1ccccc1)NC(=O)OC1(CO)CCC1 [Compound 303, [1S-(1R*,2S*)]-[Iminobis[2-hydroxy-1-(phenylmethyl)-3,1-propanediyl]]bis[[carbamic acid], 1-(hydroxymethyl)cyclobutyl 1,1-dimethylethyl ester]	70
3	CC(C)(C)OC(=O)N[C@@H](Cc1ccccc1)C(=O)N[C@@H](Cc1ccccc1)[C@H](O)CNC[C@@H](O)[C@H](Cc1ccccc1)NC(=O)[C@H](Cc1ccccc1)NC(=O)OC(C)(C)C [Compound 38, [S-(1R*,2S*)]-[Iminobis[2-hydroxy-1-(phenylmethyl)-3,1-propanediyl]]-bisimino-bis[N^2-[(1,1-dimethylethoxy)carbonyl]-L-phenyl-alaninamide]]	> 4000
100	CC(C)[C@H](NC(=O)OCc1ncc[nH]1)C(=O)N[C@@H](Cc1ccccc1)[C@H](O)CNC[C@@H](O)[C@H](Cc1ccccc1)NC(=O)OC(C)(C)C (relative stereo) [Compound 249, [1R*,2S*(2S*,3R*)]-N-[3-[[3-[[(1,1-Dimethylethoxy)carbonyl]amino]-2-hydroxy-4-phenylbutyl]amino]-2-hydroxy-1-(phenylmethyl)propyl]-N^2-[(1H-imidazol-2-ylmethoxy)carbonyl]-L-valinamide, acetate (2:3) salt]	840
10	CN(CC(O)[C@H](Cc1ccccc1)NC(=O)OC(C)(C)C)C[C@@H](O)[C@H](Cc1ccccc1)NC(=O)OC(C)(C)C (stereo partly drawn) [Compound 198, [1S-[1R*,2S*(3R*)]]-[3-[[3-[[(1,1-Dimethylethoxy)carbonyl]-amino]-2-hydroxy-4-phenylbutyl]-methylamino]-2-hydroxy-1-(phenylmethyl)propyl]-carbamic acid, 1,1-dimethylethyl ester]	> 14000
97	CC(C)(C)OC(=O)N[C@@H](Cc1ccccc1)[C@H](O)CNC[C@@H](O)[C@H](Cc1ccccc1)NC(=O)O[C@H]1COC[C@@H]1O [Compound 316, [1S-(1R*,2S*), (3S-trans)]-[Iminobis[2-hydroxy-1-(phenylmethyl)-3,1-propanediyl]]bis[carbamic acid], 4-hydroxy-3-tetrahydrofuranyl 1,1-dimethylethyl ester]	620
65	CC(C)OC(=O)N[C@@H](Cc1ccccc1)[C@H](O)CNC[C@@H](O)[C@H](Cc1ccccc1)NC(=O)OC(C)C [Compound 123, [R-(R*,S*)]-[Iminobis[2-hydroxy-1-(phenylmethyl)-3.1-propandiyl]biscarbamic acid, bis(1-methylethyl)ester]	1000
